Assay results published in US9096539B2, “Substituted 4,5-dihydro-2H-benzo[e]indazole-9-carboxylates for the treatment of diabetes and related disorders” (Council of Scientific & Industrial Research, priority 2012, dated 2015).
Where two headings read alike, the source gives them in different places. Values belong to the molecule of their own block, whether it stands above or below them.

Tests used:
[1] = system: sucrose loaded normoglycaemic rats; assay: Antihyperglycaemic activity on sucrose loaded normoglycaemic rats (SLM); type: in vivo, rat; conditions: sucrose loaded normoglycaemic rats, compounds 100 mg/kg, Januvia 50 mg/kg; for Blood Glucose Profile 0 min: 0 min (fasting baseline); for Blood Glucose Profile 120 min: 120 min post sucrose
Description: (§1) The test compounds and standard antidiabetic drug Januvia were prepared in 1.0% freshly prepared Gum acacia.
Assessment of Test Compounds for Antihyperglycaemic Activity on Sucrose Loaded Normoglycaemic Rats—
In order to search towards the antidiabetic activity, synthetic compounds were preliminary evaluated for their effect on glucose tolerance in normal rats. It is an indirect effect of measuring antihyperglycaemic activity. Male albino rats of Wistar strain of body weight 160±20 g were selected for this study. The blood glucose of each animal was checked by glucometer using glucostrips (Accu-check) after 16 hours starvation. Animals showing blood glucose between 60 to 80 mg/dl (3.33 to 4.44 mM) were divided into groups of five to six animals in each. Rats of experimental group were administered suspension of the desired test compound orally (made in 1.0% gum acacia). The standard dose decided for Synthetic compounds is 100 mg/kg body weight. Animals of control group were given an equal amount of 1.0% gum acacia. A sucrose load (10.0 g/kg) was given to each animal orally exactly after 30 min post administration of the test sample/vehicle. Blood glucose profile of each rat was again determined at 30, 60, 90 and 120 min post administration of sucrose by glucometer. Food but not water was withheld from the cages during the course of experimentation. Quantitative glucose tolerance of each animal was calculated by area under curve (AUC) method using Prism Software. Comparing the AUC of experimental and control groups determined the percentage antihyperglycaemic activity. Statistical comparison was made by Dunnett's test.
(§2) Quantitative glucose tolerance of each animal was calculated by the area under the curve (AUC) method using Prism Software. The area under the curve of the control group and the experimental group was compared to determine the percent antihyperglycaemic activity. Statistical comparisons were performed by one-way analysis of variance (ANOVA), followed by Dunnett's multiple range test (DMRT). The results were considered statistically significant if the ‘p’ values were 0.05 or less. Results were expressed as mean±SEM.

[2] = system: low dosed STZ induced diabetic rats; assay: Antihyperglycaemic activity in low dosed streptozotocin induced diabetic rats (STZ); type: in vivo, rat; conditions: low dosed STZ diabetic rats, compounds 100 mg/kg, Januvia 50 mg/kg
Description: as §1
Assessment of Test Compounds for Antihyperglycaemic Activity in Low Dosed Streptozotocin Induced Diabetic Rats—
Induction of Diabetes in Rats:
Overnight starved male albino rats of Sprague Dawley strain were used and Diabetes was induced in the animals by single intraperitoneal injection of Streptozotocin at 60 mg/kg body weight dose prepared in 0.1M citrate buffer (pH 4.5). Fasting blood glucose level was measured by using a Glucometer (ACCU-CHEK II; Roche Diagnostics, USA) after 48 hours and animals showing blood glucose level above 300 mg/di were considered as diabetic.
The diabetic animals were divided into four groups (Group 1 to 4) each consisting 6 rats. Group 1 received 0.4 ml vehicle (1% gum acacia). Group 2 received the test compound 5 at an oral dose of 100 mg/kg/body weight. Group 3 was given compound 6 at an oral dose of 100 mg/kg/body weight. The standard antidiabetic drug Januvia was given to the animals of Group 4 at an oral dose of 50 mg/kg body weight. […] Food but not water was withheld from the cages during the course of experimentation. Percent hyperglycemic activity was determined by comparing the AUC (area under curve) of experimental groups with that of the vehicle treated control group.
as §2

[3] = system: sucrose challenged STZ induced diabetic rats; assay: Antihyperglycaemic activity in sucrose challenged streptozotocin (STZ)-induced diabetic rats (STZ-S); type: in vivo, rat; conditions: compounds 100 mg/kg, Januvia 50 mg/kg
Description: The test compounds and standard antidiabetic drug Januvia were prepared in 1.0% freshly prepared Gum acacia. Assessment of Test Compounds for Antihyperglycaemic Activity in Sucrose Challenged Streptozotocin STZ-Induced Diabetic Rats— Induction of Diabetes in Rats: Overnight starved male albino rats of Sprague Dawley strain were used and Diabetes was induced in the animals by single intraperitoneal injection of Streptozotocin at 60 mg/kg body weight dose prepared in 0.1M citrate buffer (pH 4.5). Fasting blood glucose level was measured by using a Glucometer (ACCU-CHEK II; […] Grouping and Treatment: […] All the diabetic animals were again divided into groups with five animals in each group. Animals of one group were regarded as the control group (orally administered 1% gum acacia) and the others were treated as the experimental groups. […] Animals of the control group were given an equal amount of 1.0% gum acacia. The standard antidiabetic drug Januvia was given to the animals at an oral dose of 50 mg/kg body weight. […] Food but not water was withheld from the cages during the course of experimentation. Percent hyperglycemic activity was determined by comparing the AUC (area under curve) of experimental groups with that of the vehicle treated control group. Quantitative glucose tolerance of each animal was calculated by the area under the curve (AUC) method using Prism Software. The area under the curve of the control group and the experimental group was compared to determine the percent antihyperglycaemic activity. Statistical comparisons were performed by one-way analysis of variance (ANOVA), followed by Dunnett's multiple range test (DMRT). […] Results were expressed as mean±SEM.

[4] = biological target: T1, human recombinant PTP1B enzyme (Homo sapiens, UniProt P18031); assay: Protein tyrosine phosphatase-1B assay (colorimetric kit BML-AK 822); type: biochemical; conditions: read-out: % Inhibition (PTP-1B)
T1 construct: purchased Enzo Life Sciences, USA BML-AK 822
T1 sequence (P18031 1-322 limits assumed): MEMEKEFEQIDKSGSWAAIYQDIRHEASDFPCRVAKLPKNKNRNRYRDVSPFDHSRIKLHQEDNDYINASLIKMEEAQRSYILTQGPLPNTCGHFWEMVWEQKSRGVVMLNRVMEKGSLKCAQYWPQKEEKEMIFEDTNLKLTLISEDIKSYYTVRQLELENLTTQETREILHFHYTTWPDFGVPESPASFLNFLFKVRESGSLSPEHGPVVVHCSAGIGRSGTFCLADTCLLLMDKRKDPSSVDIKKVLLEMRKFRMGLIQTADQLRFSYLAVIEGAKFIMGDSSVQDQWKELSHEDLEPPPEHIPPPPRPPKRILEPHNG
Description: Assay was done according to the Kit manufacturers protocol, in brief the reaction was carried out in 96 well flat bottomed microtiter plate by the addition of assay buffer, solution of test compounds and diluted PTP1B enzyme. Enzyme reaction was initiated by addition of 50 μl of warmed 2× substrate then incubated the plate at 30° C. for 30 min. After incubation for 30 min. Reaction was terminated by addition of 25 μl of biomol red reagent and mixed thoroughly by repeated pipetting. […] Volumes and dilution of other component were accordingly as instructed in the manual provided in the kit. PTP1B phosphatase acting on the phosphopeptide substrate and release phosphate. The detection of free phosphate released is based on classic Malachite green assay. After adding biomol red to reaction wells after 30 minutes of incubation as described earlier the plate was incubated for another 20 min to develop the colour. Absorbance was recorded at 620 nm. on a microplate reader.

[5] = 0 min pre treatment (fasting baseline)
[6] = Table 5, evaluated at 10 μM concentration

SMILES: N[C@@H](CC(=O)N1CCn2c(nnc2C(F)(F)F)C1)Cc1cc(F)c(F)cc1F [Januvia, reference compound]
Blood Glucose Profile 0 min ([1]; mean ± S.E.): 66.3 ± 3.12 mg/dL
Blood Glucose Profile 0 min ([1]; mean ± S.E., listed as januvia): 66.2 ± 0.73 mg/dL
Blood Glucose Profile 30 min ([1]; 30 min post sucrose, mean ± S.E.): 114.0 ± 8.21 mg/dL
Blood Glucose Profile 60 min ([1]; 60 min post sucrose, mean ± S.E.): 104.8 ± 5.70 mg/dL
Blood Glucose Profile 90 min ([1]; 90 min post sucrose, mean ± S.E.): 112.0 ± 7.30 mg/dL
Blood Glucose Profile 120 min ([1]; mean ± S.E.): 115.0 ± 7.67 mg/dL
Blood Glucose Profile 120 min ([1]; mean ± S.E., listed as januvia): 115.0 ± 7.67 mg/dL
% Antihyperglycaemic activity SLM ([1]; AUC vs control, oral): 35.0%
Blood Glucose Profile 0 min (Pre treatment) [2, 5]: 341.4 ± 3.53 mg/dL
Blood Glucose Profile 30 min (Post treatment) ([2]; 30 min): 445.8 ± 13.0 mg/dL
Blood Glucose Profile 60 min (Post treatment) ([2]; 60 min): 497.4 ± 11.2 mg/dL
Blood Glucose Profile 90 min (Post treatment) ([2]; 90 min): 473.4 ± 11.2 mg/dL
Blood Glucose Profile 120 min (Post treatment) ([2]; 120 min): 392.0 ± 11.8 mg/dL
Blood Glucose Profile 180 min (Post treatment) ([2]; 180 min): 348.2 ± 16.7 mg/dL
Blood Glucose Profile 240 min (Post treatment) ([2]; 240 min): 300.4 ± 14.7 mg/dL
Blood Glucose Profile 300 min (Post treatment) ([2]; 300 min): 255.0 ± 16.9 mg/dL
Blood Glucose Profile 1440 min (Post treatment) ([2]; 1440 min): 484.4 ± 10.7 mg/dL
% Antihyperglycaemic activity STZ 0-5 h AUC ([2]; 0-5 h AUC, oral): 28.2%
% Antihyperglycaemic activity STZ 0-24 h AUC ([2]; 0-24 h AUC, oral): 27.4%
% Antihyperglycaemic activity STZ-S 0-5 h AUC ([3]; 0-5 h AUC, oral): 21.8%
% Antihyperglycaemic activity STZ-S 0-24 h AUC ([3]; 0-24 h AUC, oral): 23.8%
Blood Glucose Profile 0 min (Pre treatment) [3, 5]: 222.3 ± 16.2 mg/dL
Blood Glucose Profile 30 min (Post treatment) ([3]; 30 min): 455.0 ± 14.2 mg/dL
Blood Glucose Profile 60 min (Post treatment) ([3]; 60 min): 519.8 ± 16.0 mg/dL
Blood Glucose Profile 90 min (Post treatment) ([3]; 90 min): 469.3 ± 9.40 mg/dL
Blood Glucose Profile 120 min (Post treatment) ([3]; 120 min): 439.3 ± 14.2 mg/dL
Blood Glucose Profile 180 min (Post treatment) ([3]; 180 min): 377.6 ± 10.1 mg/dL
Blood Glucose Profile 240 min (Post treatment) ([3]; 240 min): 359.5 ± 10.1 mg/dL
Blood Glucose Profile 300 min (Post treatment) ([3]; 300 min): 337.6 ± 8.18 mg/dL
Blood Glucose Profile 1440 min (Post treatment) ([3]; 1440 min): 394.6 ± 8.34 mg/dL

SMILES: COC(=O)c1c(SC)cc(-c2ccc(Br)cc2)c2c1-c1cn(-c3ccccc3)nc1CC2 [compound 1, methyl 6-(4-bromophenyl)-8-(methylthio)-2-phenyl-4,5-dihydro-2H-benzo[e]indazole-9-carboxylate]
inhibition at 10 µM [4]: 9.2%
melting point: 164 to 166 °C

SMILES: COC(=O)c1c(SC)cc(-c2ccc(OC)cc2)c2c1-c1cn(-c3ccccc3)nc1CC2 [compound 3, methyl 6-(4-methoxyphenyl)-8-(methylthio)-2-phenyl-4,5-dihydro-2H-benzo[e]indazole-9-carboxylate]
inhibition at 10 µM [4, 6]: 8.43%
melting point: 172 to 174 °C

SMILES: COC(=O)c1c(SC)cc(-c2ccccc2)c2c1-c1cn(-c3ccccc3)nc1CC2 [compound 4, methyl 8-(methylthio)-2,6-diphenyl-4,5-dihydro-2H-benzo[e]indazole-9-carboxylate]
inhibition at 10 µM [4, 6]: 16.4%
melting point: 173 to 175 °C

The next lines start with the values.

inhibition at 10 µM [4, 6]: 60.2%
SMILES: Cc1ccc(C(=O)Nc2ccc(S(=O)(=O)O)c3cc(S(=O)(=O)O)cc(S(=O)(=O)O)c23)cc1NC(=O)c1cccc(NC(=O)Nc2cccc(C(=O)Nc3cc(C(=O)Nc4ccc(S(=O)(=O)O)c5cc(S(=O)(=O)O)cc(S(=O)(=O)O)c45)ccc3C)c2)c1 [Standard Suramin, suramin, reference compound]

inhibition at 10 µM [4, 6]: 8%
melting point: 159 to 162 °C
SMILES: COC(=O)c1c(SC)cc(-c2ccc(Cl)cc2)c2c1-c1cn(-c3ccccc3)nc1CC2 [compound 2, methyl 6-(4-chlorophenyl)-8-(methylthio)-2-phenyl-4,5-dihydro-2H-benzo[e]indazole-9-carboxylate]

inhibition at 10 µM [4, 6]: 12.7%
melting point: 174 to 176 °C
SMILES: COC(=O)c1c(SC)cc(-c2cccs2)c2c1-c1cn(-c3ccccc3)nc1CC2 [compound 7, methyl 8-(methylthio)-2-phenyl-6-(thiophen-2-yl)-4,5-dihydro-2H-benzo[e]indazole-9-carboxylate]

melting point: 235 to 237 °C
SMILES: COC(=O)c1c(SC)cc(-c2ccc3ccccc3c2)c2c1-c1cn(-c3ccccc3)nc1C2 [compound 13, Methyl 5-(methylthio)-7-(naphthalen-2-yl)-2-phenyl-2,8-dihydroindeno[2,1-c]pyrazole-4-carboxylate]
